Reference: patent publication US4316898A, “Cephalosporins” (Boehringer Ingelheim KG, priority 1979, dated 1982)
Values after ≈ are worked out from the molar mass of the structure shown.

How the values were obtained:
[1] = test system: Pseudomonas aeruginosa Hamburgensis; assay: Serial dilution test in the microtiter system, MIC against Pseudomonas aeruginosa Hamburgensis; type: cell-based; conditions: minimum inhibitory concentration, 37° C., 18 to 20 hours, read-out: MIC, Pseud. aerug. Hbg.
Protocol: (§1) The tests were performed using the serial dilution test in the microtiter system. The effect of the test compounds on bacteriostasis was examined at the following concentrations: 80, 40, 20, 10, 5, 2.5, 1.25, 0.6, 0.3, 0.08 and 0.02 μgm/ml. The nutrient medium consisted of 10 gm of peptone, 8 gm of meat extract oxoid, 3 gm of sodium chloride, and 2 gm of sec. sodium phosphate diluted with distilled water to […] (pH 7.2-7.4). Only in the test against streptococci 1% of glucose was added. The age of the primary cultures was approximately 20 hours. The standardization of the bacteria suspension was effected using a photometer according to the method of Eppendorf (test tube .phi. 14 mm, filter 546 nm), using for comparison a barium sulfate suspension formed by the addition of 3.0 ml of 1% barium chloride solution to 97 ml of 1% sulfuric acid. After the standardization,Streptococcus aronson was further diluted to a concentration of 1:15, and the other bacteria to a concentration of 1:1500, using a sodium chloride solution.
(§2) 16 mgm of the particular test compound were put into a 10 ml measuring flask, and the flask was subsequently filled to the mark with solvent. The further dilution series was standardized with distilled water or the appropriate solvent.
(§3) The cavities of the microtiter plates were filled with 0.2 ml of nutrient medium. 0.01 ml of the appropriate test compound solution was then added, followed by inoculation with 0.01 ml of the standardized bacteria suspension. The bacteria were incubated at 37° C. for 18 to 20 hours. Control tests using only the solvent were carried out simultaneously.
(§4) The measurement was carried out macroscopically to determine the minimum inhibitory concentration (the lowest still bacteriostatically effective concentration).
(§5) The following test organisms were used:
(§6) Staphylococcus aureus SG 511, St. aureus E 88 (β-lactamase carrier), Escherichia coli ATCC 11 775, Pseudomonas aeruginosa Hamburgensis and Pseudomonas aeruginosa Walter, Serratia macrescens ATCC 13 880, Klebsiella pneumoniae ATCC 10 031 and 272, Proteus mirabilis Hamburgensis, Proteus rettgeri Eb. cloaceae ATCC 13047, and E. coli R+TEM (β-lactamase carrier).
(§7) The following tables show the determined minimum inhibitory concentrations (MIC) for a few representative compounds (E=Na) of the present invention, and two known cephalosporins for comparison: […]

E. coli ATCC 11775 = assay: In vivo test in mice against experimental E. coli infection; set-up: species or system Female NMRI mice; conditions: Escherichia coli, ATCC11775, sc, 168 h; subcutaneous; per dose; dose at which 50% of the animals survived; observation 7 days
Protocol: (§8) A series of the compounds according to the invention was tested in vivo in mice against experimental infections. As pathogenic bacteria were used E. coli ATCC 11775 and Pseudomonas aeruginosa Walter. An intraperitoneal infection was induced in each mouse with 0.2 ml of a 5% mucin suspension of the bacteria corresponding of approximately 1.4×10^6 E. coli cells and 1.3×10^6 Pseudomonas cells per mouse. Female NMRI mice were used, divided into groups of 10 animals. Two groups were untreated and the remaining groups were treated with different doses of the cephalosporins to be tested to determine the ED50 (dose at which 50% of the animals survived). The groups infected with E. coli were on the first day treated with the test compound three times ([…] post infectionem) and on the second day twice. The groups with the Pseudomonas infection were on the first day treated with the test compound six times (1, 3, 5, 7, 9 and 11 hours post infectionem), and on the following two days twice.
(§9) The observation time was in both cases 7 days.

Proteus rettgeri = assay: Serial dilution test in the microtiter system, MIC against Proteus rettgeri; type: cell-based; conditions: Providencia rettgeri; minimum inhibitory concentration; 37° C., 18 to 20 hours; read-out: MIC, Prot. rettg.
Protocol: as §1, §2, §3, §4, §5, §6, §7

[2] = test system: Serratia macrescens ATCC 13 880; assay: Serial dilution test in the microtiter system, MIC against Serratia marcescens ATCC 13880; type: cell-based; conditions: read-out: MIC, Serr. marcesc. ATCC 13880
Protocol: as §1, §2, §3, §4, §5, §6, §7

[3] = test system: Pseudomonas aeruginosa Walter; assay: In vivo test in mice against experimental Pseudomonas infection; set-up: species or system Female NMRI mice; conditions: subcutaneous, observation 7 days; for ED50: Pseudomonas aeruginosa, sc, 168 h, per dose, dose at which 50% of the animals survived
Protocol: as §8, §9

[4] = test system: Escherichia coli ATCC 11 775; assay: Serial dilution test in the microtiter system, MIC against E. coli ATCC 11775; type: cell-based; conditions: minimum inhibitory concentration, 37° C., 18 to 20 hours
Protocol: as §1, §2, §3, §4, §5, §6, §7

St. aureus E 88 = assay: Serial dilution test in the microtiter system, MIC against S. aureus E 88 (β-lactamase carrier); type: cell-based; conditions: Staphylococcus aureus, E88, minimum inhibitory concentration, 37° C., 18 to 20 hours
Protocol: as §1, §2, §3, §4, §5, §6, §7

Eb. cloaceae ATCC 13047 = assay: Serial dilution test in the microtiter system, MIC against Eb. cloaceae ATCC 13047; type: cell-based; conditions: minimum inhibitory concentration; 37° C., 18 to 20 hours
Protocol: as §1, §2, §3, §4, §5, §6, §7

[5] = test system: Staphylococcus aureus SG 511; assay: Serial dilution test in the microtiter system, MIC against S. aureus SG 511; type: cell-based; conditions: SG511, minimum inhibitory concentration, 37° C., 18 to 20 hours
Protocol: as §1, §2, §3, §4, §5, §6, §7

E. coli R+TEM = assay: Serial dilution test in the microtiter system, MIC against E. coli R+TEM (β-lactamase carrier); type: cell-based; conditions: Escherichia coli, read-out: MIC, E. coli R + TEM
Protocol: as §1, §2, §3, §4, §5, §6, §7

[6] = test system: Klebsiella pneumoniae ATCC 10 031; assay: Serial dilution test in the microtiter system, MIC against Klebsiella pneumoniae ATCC 10031; type: cell-based; conditions: minimum inhibitory concentration, 37° C., 18 to 20 hours, read-out: MIC, Klebs. pneum. ATCC 10031
Protocol: as §1, §2, §3, §4, §5, §6, §7

[7] = test system: Proteus mirabilis Hamburgensis; assay: Serial dilution test in the microtiter system, MIC against Proteus mirabilis Hamburgensis; type: cell-based; conditions: minimum inhibitory concentration, 37° C., 18 to 20 hours, read-out: MIC, Prot. Mir. Hbg.
Protocol: as §1, §2, §3, §4, §5, §6, §7

[8] = test system: Pseudomonas aeruginosa Walter; assay: Serial dilution test in the microtiter system, MIC against Pseudomonas aeruginosa Walter; type: cell-based; conditions: minimum inhibitory concentration, 37° C., 18 to 20 hours, read-out: MIC, Pseud. aerug. Walter
Protocol: as §1, §2, §3, §4, §5, §6, §7

[9] = test system: Klebsiella pneumoniae 272; assay: Serial dilution test in the microtiter system, MIC against Klebsiella pneumoniae 272; type: cell-based; conditions: minimum inhibitory concentration, 37° C., 18 to 20 hours, read-out: MIC, Klebs. pneum. 272
Protocol: as §1, §2, §3, §4, §5, §6, §7

SMILES	MIC [1]	ED50 (E. coli ATCC 11775)	MIC (Proteus rettgeri)	MIC [2]	ED50 [3]	MIC [4]	MIC (St. aureus E 88)	MIC (Eb. cloaceae ATCC 13047)	MIC [5]	MIC (E. coli R+TEM)	MIC [6]	MIC [7]	MIC [8]	MIC [9]	Mortality, Pseudomonas infection ([3]; at 200 mg/kg per dose)
CCCNc1ncc(NC(=O)N[C@@H](C(=O)N[C@@H]2C(=O)N3C(C(=O)O)=C(CSc4nnnn4C)CS[C@H]23)c2ccc(O)cc2)c(O)n1 [B]	4 µg/mL (≈ 5.95 µM)	1.1 mg/kg	1 µg/mL (≈ 1.49 µM)	1 µg/mL (≈ 1.49 µM)	12.4 mg/kg	0.5 µg/mL (≈ 0.744 µM)	8 µg/mL (≈ 11.9 µM)	1 µg/mL (≈ 1.49 µM)	1 µg/mL (≈ 1.49 µM)	8 µg/mL	0.5 µg/mL (≈ 0.744 µM)	0.25 µg/mL (≈ 0.372 µM)	8 µg/mL (≈ 11.9 µM)	0.5 µg/mL (≈ 0.744 µM)	
Cn1nnnc1SCC1=C(C(=O)O)N2C(=O)[C@@H](NC(=O)[C@H](NC(=O)Nc3cnc(Nc4ccc(S(N)(=O)=O)cc4)nc3O)c3ccc(O)cc3)[C@H]2SC1 [L]	2 µg/mL (≈ 2.55 µM)	0.15 mg/kg	0.13 µg/mL (≈ 0.166 µM)	0.06 µg/mL (≈ 0.0765 µM)	2.1 mg/kg	< 0.03 µg/mL	4 µg/mL (≈ 5.1 µM)	0.5 µg/mL (≈ 0.637 µM)	0.5 µg/mL (≈ 0.637 µM)	2 µg/mL	0.06 µg/mL (≈ 0.0765 µM)	< 0.06 µg/mL	2 µg/mL (≈ 2.55 µM)	0.06 µg/mL (≈ 0.0765 µM)	
Cn1nnnc1SCC1=C(C(=O)O)N2C(=O)[C@@H](NC(=O)[C@H](NC(=O)Nc3cnc(NC4CCC(O)CC4)nc3O)c3ccc(O)cc3)[C@H]2SC1 (some centres unmarked) [C]	4 µg/mL (≈ 5.5 µM)	0.4 mg/kg	1 µg/mL (≈ 1.37 µM)	0.5 µg/mL (≈ 0.687 µM)	4.2 mg/kg	0.13 µg/mL (≈ 0.179 µM)	8 µg/mL (≈ 11 µM)	0.5 µg/mL (≈ 0.687 µM)	1 µg/mL (≈ 1.37 µM)	8 µg/mL	0.5 µg/mL (≈ 0.687 µM)	0.13 µg/mL (≈ 0.179 µM)	4 µg/mL (≈ 5.5 µM)	0.5 µg/mL (≈ 0.687 µM)	
CO/N=C(\C(=O)N[C@@H]1C(=O)N2C(C(=O)O)=C(COC(N)=O)CS[C@H]12)c1ccco1 [Cefuroxim, reference compound]	> 100 µg/mL	37 mg/kg	2 µg/mL (≈ 4.71 µM)	8 µg/mL (≈ 18.9 µM)		8 µg/mL (≈ 18.9 µM)	16 µg/mL (≈ 37.7 µM)	32 µg/mL (≈ 75.4 µM)	1 µg/mL (≈ 2.36 µM)	4 µg/mL	2 µg/mL (≈ 4.71 µM)	0.5 µg/mL (≈ 1.18 µM)	> 100 µg/mL	4 µg/mL (≈ 9.43 µM)	all animals died
